Measurements reported in the CheMixHub viscosity set.

Assay: xn = mol fraction of the nth substance listed

CCCCCOC(C)=O + CCCCCO
viscosity [mPa·s], 101.33 kPa
Settings	x1 = 0.0982	x1 = 0.1951	x1 = 0.3024	x1 = 0.4009	x1 = 0.5015	x1 = 0.6044	x1 = 0.7081	x1 = 0.8063	x1 = 0.9007
293.15 K	3.552	3.076	2.623	2.266	1.952	1.675	1.436	1.241	1.079
303.15 K	2.583	2.279	1.984	1.747	1.534	1.343	1.174	1.034	0.915
313.15 K	2.039	1.811	1.588	1.407	1.244	1.097	0.966	0.857	0.763
323.15 K	1.198	1.103	1.001	0.924	0.847	0.776	0.709	0.652	0.601

C1CCC2=[NH+]CCCN2CC1.c1nc[n-]n1 + CCCCO
303.15 K, 100 kPa
Settings	viscosity [mPa·s]
x1 = 0.1001	6.47
x1 = 0.2	12.31
x1 = 0.2999	22.82
x1 = 0.4003	42.54
x1 = 0.4989	74.34
x1 = 0.6002	128.6
x1 = 0.7008	204.7
x1 = 0.7993	423.5
x1 = 0.9002	608.2

C=CC(=O)OC + CCCCO
viscosity [mPa·s], 101.33 kPa
Settings	308.15 K	318.15 K
x1 = 0.0466	1.721	1.393
x1 = 0.1448	1.322	1.115
x1 = 0.2429	1.042	0.908
x1 = 0.3387	0.847	0.755
x1 = 0.4481	0.688	0.625
x1 = 0.5003	0.63	0.575
x1 = 0.5436	0.589	0.539
x1 = 0.6469	0.512	0.468
x1 = 0.7461	0.459	0.416
x1 = 0.8469	0.422	0.375
x1 = 0.9456	0.399	0.346

C=CC(=O)OCCCC + CCCCO
101.33 kPa
Settings	viscosity [mPa·s]
293.15 K, x1 = 0.0999	2.173
293.15 K, x1 = 0.2001	1.725
293.15 K, x1 = 0.2999	1.448
293.15 K, x1 = 0.3998	1.245
293.15 K, x1 = 0.5002	1.117
293.15 K, x1 = 0.6002	1.025
293.15 K, x1 = 0.7002	0.9619
293.15 K, x1 = 0.8	0.9168
293.15 K, x1 = 0.9	0.8882
303.15 K, x1 = 0.0999	1.718
303.15 K, x1 = 0.1998	1.385
303.15 K, x1 = 0.3006	1.185
303.15 K, x1 = 0.3999	1.035
303.15 K, x1 = 0.4992	0.9378
303.15 K, x1 = 0.5983	0.8682
303.15 K, x1 = 0.6991	0.8213
303.15 K, x1 = 0.8002	0.784
303.15 K, x1 = 0.9003	0.7678
313.15 K, x1 = 0.1004	1.291
313.15 K, x1 = 0.2001	1.018
313.15 K, x1 = 0.3002	0.8796
313.15 K, x1 = 0.3999	0.7948
313.15 K, x1 = 0.4994	0.7351
313.15 K, x1 = 0.5998	0.7091
313.15 K, x1 = 0.6999	0.6745
313.15 K, x1 = 0.7578	0.6676
313.15 K, x1 = 0.8999	0.6659
